In PubChem BioAssay (NCI):
Several values for one entry are separate records, joined by “and”; a condition that tells them apart may be missing. Equal values may be shown once.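 All cell lines were grown in 96-well plates and treated with compound for 48 hours. Abbreviation: GI50, concentration required for 50% inhibition of growth. TGI: total growth inhibition.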

Legend:
Assay in all cases: growth of human tumour cells (NCI), 48 h
TK-10 renal = system: TK-10 renal
KM12 colon = system: KM12 colon
NCI/ADR-RES ovarian = system: NCI/ADR-RES ovarian
SK-MEL-28 melanoma = system: SK-MEL-28 melanoma
UACC-62 melanoma = system: UACC-62 melanoma
MDA-MB-231 breast = system: MDA-MB-231 breast
RXF 393 renal = system: RXF 393 renal
T-47D breast = system: T-47D breast
OVCAR-8 ovarian = system: OVCAR-8 ovarian
UACC-257 melanoma = system: UACC-257 melanoma
CAKI-1 renal = system: CAKI-1 renal
A498 renal = system: A498 renal
K-562 leukemia = system: K-562 leukemia
HCC-2998 colon = system: HCC-2998 colon
HL-60(TB) leukemia = system: HL-60(TB) leukemia
NCI-H522 lung = system: NCI-H522 lung
PC-3 prostate = system: PC-3 prostate
CCRF-CEM leukemia = system: CCRF-CEM leukemia
U251 CNS = system: U251 CNS
BT-549 breast = system: BT-549 breast
SW-620 colon = system: SW-620 colon
DU-145 prostate = system: DU-145 prostate
HCT-116 colon = system: HCT-116 colon
A549 NSCLC = system: A549 NSCLC
RPMI-8226 leukemia = system: RPMI-8226 leukemia
OVCAR-3 ovarian = system: OVCAR-3 ovarian
M14 melanoma = system: M14 melanoma
LOX IMVI melanoma = system: LOX IMVI melanoma
IGROV1 ovarian = system: IGROV1 ovarian
EKVX NSCLC = system: EKVX NSCLC
NCI-H23 lung = system: NCI-H23 lung
HT29 colon = system: HT29 colon
MOLT-4 leukemia = system: MOLT-4 leukemia
HOP-92 NSCLC = system: HOP-92 NSCLC
SK-MEL-2 melanoma = system: SK-MEL-2 melanoma
HCT-15 colon = system: HCT-15 colon
OVCAR-5 ovarian = system: OVCAR-5 ovarian
ACHN renal = system: ACHN renal
UO-31 renal = system: UO-31 renal
HS 578T breast = system: HS 578T breast
SK-OV-3 ovarian = system: SK-OV-3 ovarian
SF-539 CNS = system: SF-539 CNS
COLO 205 colon = system: COLO 205 colon
SF-268 CNS = system: SF-268 CNS
NCI-H460 lung = system: NCI-H460 lung
SK-MEL-5 melanoma = system: SK-MEL-5 melanoma
SN12C renal = system: SN12C renal
SF-295 CNS = system: SF-295 CNS
SNB-19 CNS = system: SNB-19 CNS
NCI-H226 lung = system: NCI-H226 lung
786-0 renal = system: 786-0 renal
HOP-62 NSCLC = system: HOP-62 NSCLC
MDA-MB-435 = system: MDA-MB-435
OVCAR-4 ovarian = system: OVCAR-4 ovarian
MALME-3M melanoma = system: MALME-3M melanoma
SR leukemia = system: SR leukemia
SNB-75 CNS = system: SNB-75 CNS
MCF7 breast = system: MCF7 breast

SMILES: CC(C)n1nc(-c2ccc3oc(N)nc3c2)c2c(N)ncnc21
- GI50 (TK-10 renal): < 11.3 nM and 11.2 nM
- TGI (TK-10 renal): 240 nM and 89.7 nM
- GI50 (KM12 colon): 22.2 nM and 17.9 nM
- TGI (KM12 colon): 5010 nM and 2240 nM
- GI50 (NCI/ADR-RES ovarian): 25.1 nM and 24.5 nM
- TGI (NCI/ADR-RES ovarian): 580 nM and 830 nM
- GI50 (SK-MEL-28 melanoma): < 10.8 nM
- TGI (SK-MEL-28 melanoma): 189 nM
- GI50 (UACC-62 melanoma): < 10 nM
- TGI (UACC-62 melanoma): 31.7 nM and 49 nM
- GI50 (MDA-MB-231 breast): 16.5 nM and 21.1 nM
- TGI (MDA-MB-231 breast): 1970 nM and 1700 nM
- GI50 (RXF 393 renal): < 10 nM
- TGI (RXF 393 renal): 43 nM and 53.3 nM
- GI50 (T-47D breast): < 10 nM
- TGI (T-47D breast): 16 nM and 15.5 nM
- GI50 (OVCAR-8 ovarian): 24.6 nM and 21.8 nM
- TGI (OVCAR-8 ovarian): 1240 nM and 506 nM
- GI50 (UACC-257 melanoma): < 12.3 nM and 13.7 nM
- TGI (UACC-257 melanoma): 145 nM and 121 nM
- GI50 (CAKI-1 renal): < 15.7 nM and 16.1 nM
- TGI (CAKI-1 renal): 725 nM and 265 nM
- GI50 (A498 renal): < 10 nM
- TGI (A498 renal): < 10 nM
- GI50 (K-562 leukemia): 43.1 nM and 37.6 nM
- TGI (K-562 leukemia): > 100000 nM
- GI50 (HCC-2998 colon): 24 nM and 25.9 nM
- TGI (HCC-2998 colon): 11500 nM and 11900 nM
- GI50 (HL-60(TB) leukemia): 86.9 nM and 168 nM
- TGI (HL-60(TB) leukemia): 12300 nM and 11200 nM
- GI50 (NCI-H522 lung): < 10 nM
- TGI (NCI-H522 lung): 15300 nM and 1760 nM
- GI50 (PC-3 prostate): < 10 nM
- TGI (PC-3 prostate): 3940 nM and 2570 nM
- GI50 (CCRF-CEM leukemia): 26.5 nM and 46.7 nM
- TGI (CCRF-CEM leukemia): > 45600 nM
- GI50 (U251 CNS): 22.9 nM and 25.5 nM
- TGI (U251 CNS): 10200 nM and 2440 nM
- GI50 (BT-549 breast): < 10 nM
- GI50 (SW-620 colon): 37 nM and 37.9 nM
- TGI (SW-620 colon): 21100 nM and 12600 nM
- GI50 (DU-145 prostate): 20.3 nM and 20.8 nM
- TGI (DU-145 prostate): 11900 nM and 6630 nM
- GI50 (HCT-116 colon): 38.7 nM and 36.1 nM
- TGI (HCT-116 colon): 15000 nM
- GI50 (A549 NSCLC): 15.6 nM and 19.1 nM
- TGI (A549 NSCLC): 2880 nM and 1030 nM
- GI50 (RPMI-8226 leukemia): < 10 nM
- TGI (RPMI-8226 leukemia): 1100 nM and 3680 nM
- GI50 (OVCAR-3 ovarian): < 13 nM and 12 nM
- TGI (OVCAR-3 ovarian): 411 nM and 759 nM
- GI50 (M14 melanoma): < 10 nM
- TGI (M14 melanoma): 522 nM and 678 nM
- GI50 (LOX IMVI melanoma): 12.7 nM and 17.4 nM
- TGI (LOX IMVI melanoma): 1330 nM and 1640 nM
- GI50 (IGROV1 ovarian): < 10 nM
- TGI (IGROV1 ovarian): 55.4 nM and 277 nM
- GI50 (EKVX NSCLC): 15.9 nM
- TGI (EKVX NSCLC): 225 nM
- GI50 (NCI-H23 lung): 26.8 nM and 17.6 nM
- TGI (NCI-H23 lung): 8160 nM and 2390 nM
- GI50 (HT29 colon): 27.2 nM
- TGI (HT29 colon): 10800 nM and 5320 nM
- GI50 (MOLT-4 leukemia): 32.5 nM and 43.8 nM
- TGI (MOLT-4 leukemia): 5900 nM and 9490 nM
- GI50 (HOP-92 NSCLC): < 10 nM
- TGI (HOP-92 NSCLC): < 10 nM
- GI50 (SK-MEL-2 melanoma): 19.4 nM and 15.7 nM
- TGI (SK-MEL-2 melanoma): 581 nM and 113 nM
- GI50 (HCT-15 colon): 12.6 nM and 16.4 nM
- TGI (HCT-15 colon): 11300 nM and > 35200 nM
- GI50 (OVCAR-5 ovarian): 13.2 nM and 16.1 nM
- TGI (OVCAR-5 ovarian): 1400 nM and 2080 nM
- GI50 (ACHN renal): 10.5 nM and 13 nM
- TGI (ACHN renal): 1140 nM and 820 nM
- GI50 (UO-31 renal): < 10 nM
- TGI (UO-31 renal): 40.2 nM and 89.8 nM
- GI50 (HS 578T breast): < 10 nM
- TGI (HS 578T breast): 32.3 nM and 51.7 nM
- GI50 (SK-OV-3 ovarian): < 10 nM
- TGI (SK-OV-3 ovarian): 49 nM and 54.8 nM
- GI50 (SF-539 CNS): 18.4 nM and 17.5 nM
- TGI (SF-539 CNS): 90.2 nM and 113 nM
- GI50 (COLO 205 colon): < 10 nM and 14.4 nM
- TGI (COLO 205 colon): 2210 nM and 1880 nM
- GI50 (SF-268 CNS): 15.1 nM and 15.4 nM
- TGI (SF-268 CNS): 2880 nM and 1850 nM
- GI50 (NCI-H460 lung): < 10 nM
- TGI (NCI-H460 lung): 36300 nM and 16800 nM
- GI50 (SK-MEL-5 melanoma): 17.1 nM and < 11.4 nM
- TGI (SK-MEL-5 melanoma): 143 nM and 86.5 nM
- GI50 (SN12C renal): < 11.4 nM and 11.3 nM
- TGI (SN12C renal): 2690 nM and 8690 nM
- GI50 (SF-295 CNS): < 10 nM and 10.2 nM
- TGI (SF-295 CNS): 47.2 nM and 77.3 nM
- GI50 (SNB-19 CNS): 33.6 nM and 27 nM
- TGI (SNB-19 CNS): 1940 nM and 1330 nM
- GI50 (NCI-H226 lung): < 10 nM
- TGI (NCI-H226 lung): 371 nM and 231 nM
- GI50 (786-0 renal): 14.6 nM and 26.6 nM
- TGI (786-0 renal): 400 nM and 1410 nM
- GI50 (HOP-62 NSCLC): 19.8 nM and 21.2 nM
- TGI (HOP-62 NSCLC): 793 nM and 435 nM
- GI50 (MDA-MB-435): < 12.5 nM and 13.8 nM
- TGI (MDA-MB-435): 403 nM and 110 nM
- GI50 (OVCAR-4 ovarian): < 10 nM
- TGI (OVCAR-4 ovarian): 77 nM and 56.9 nM
- GI50 (MALME-3M melanoma): < 10 nM
- TGI (MALME-3M melanoma): < 10 nM and 22 nM
- GI50 (SR leukemia): 28.4 nM and < 11.2 nM
- TGI (SR leukemia): 3840 nM
- GI50 (SNB-75 CNS): < 10 nM
- TGI (SNB-75 CNS): 53.2 nM and 21.1 nM
- GI50 (MCF7 breast): < 10 nM
- TGI (MCF7 breast): 2870 nM and 4120 nM
